From patent publication US11390631B1, “Benzodiazepine derivatives as RSV inhibitors” (priority 2015, dated 2022)
Read-outs that look alike come from different tables or passages of the source.

Test system: Human RSV-A (“Long” strain)
Experiment: RSV-A assay: inhibition of cytopathic effect in Hep-2 cells, ATPlite readout
Format: cell-based, Human respiratory syncytial virus (HRSV)
Conditions: read-out: Human RSV-A (“Long” strain) EC50
Text: Hep-2 cells, (originally derived from tumors grown in irradiated-cortisonised weanling rats that had been injected with epidermoid carcinoma tissue from a person's larynx, but later found to be indistinguishable from HeLa cells by PCR DNA analysis), were used for the culturing of genotype A, “Long” strain RSV. Flasks were inoculated with RSV and viral stocks were collected once cytopathic effect (CPE) was greater than 90%. Viral stocks in 25% sucrose media were snap frozen using liquid nitrogen to increase viral stability. Viral stock titers were quantified by tissue culture infectious dose 50% (TCID50) using 8,000 cells per well and 3-fold viral dilutions across a 96-well plate, cultured for 4 days. Viral stock titers were also quantified by a plaque forming unit assay, as described elsewhere.
Following extensive parameter testing, the final assay is run as follows: Hep-2 cells are seeded into the inner 60 wells of a 96-well plate at 8,000 cells per well in a volume of 50 μL using Growth Media (DMEM without phenol red, 1% L-Glut, 1% Penn/Strep, 1% nonessential amino acids, 10% heat-inactivated FBS). 2-fold serial dilutions of control and test compounds are added to the wells in duplicate in a total volume of 25 μL. Viral stock is then added to the wells at a multiplicity of infection (MOI) of 0.1 in a volume of 25 μL, bringing the total volume of each well to 100 μL. The MOI is calculated using the PFU/mL, or TCID50 if unavailable. Each 96-well plate has a control column of 6 wells with cells and virus but no compound (negative control, max CPE), a column with cells but no compound or virus (positive control, minimum CPE), and a column with no cells or virus or compound (background plate/reagent control). The control wells with cells but no virus are given an additional 25 uL of growth media containing an equal quantity of sucrose as those wells receiving the viral stock in order to keep consistent in media and volume conditions. The outer wells of the plate are filled with 125 μL of moat media (DMEM, 1% Penn/Strep) to act as a thermal and evaporative moat around the test wells. Following a 5-day incubation period, the plates are read using ATPlite (50 uL added per well), which quantifies the amount of ATP (a measure of cell health) present in each well. Assay plates are read using the Envision luminometer. In parallel, cytotoxicity is examined on an additional 96-well plate treated in an identical manner, but substituting the 25 μL of viral stock for 25 μL of growth media. […] EC50 ranges are as follows: A<0.4 μM; B 0.4-0.8 μM; C>0.8 μM and CC50 ranges are as follows: A>50 μM; B 10-50 μM; C<10 μM.

[1] = human respiratory syncytial virus, HEp-2, 120 h
[2] = Hep-2 cells, MOI 0.1, 5-day incubation, ATPlite

SMILES	EC50 [1] [nM]	EC50 [2] [nM]
O=C1Nc2ccccc2C(c2ccccc2)=N[C@@H]1Nc1nnc(-c2cn(-c3ccc(C(F)(F)F)cn3)nc2N2CCOCC2)o1 [Example 440]	400 to 800	
COC[C@@H]1CCCN1c1sc(C(F)(F)F)nc1-c1nnc(N[C@H]2N=C(c3ccccc3)c3ccccc3NC2=O)o1 [Example 457]	> 800	
COCCNc1sccc1-c1nnc(N[C@H]2N=C(c3ccccc3)c3ccccc3NC2=O)o1 [Example 472]	> 800	
O=C1Nc2ccccc2C(c2ccccc2)=NC1Nc1nnc([C@H]2CCCO2)o1 (stereo partly shown) [Example 198]	> 800	
O=C1Nc2ccccc2C(c2ccccc2)=N[C@@H]1Nc1nnc(-c2ncc3ccccc3c2N2CCOCC2)o1 [Example 316]	> 800	
O=C1Nc2ccccc2C(c2ccccc2)=NC1Nc1nnc(-c2ccc(-n3cnnc3)cc2)o1 (stereo not shown) [Example 233]	> 800	
CS(=O)(=O)Cc1nnc(NC2N=C(c3ccccc3)c3ccccc3NC2=O)o1 (stereo not shown) [Example 194]	> 800	
O=C1Nc2ccccc2C(c2ccccc2)=N[C@@H]1Nc1nnc(-c2nc(C3CCCCC3)sc2N2CCOCC2)o1 [Example 405]	< 400	
O=C1Nc2ccccc2C(c2ccccc2)=NC1Nc1nnc(-c2ccc(-n3cccn3)nc2)o1 (stereo not shown) [Example 211]	> 800	
Cc1nsc(N2CCOCC2)c1-c1nnc(N[C@H]2N=C(c3ccccc3)c3ccccc3NC2=O)o1 [Example 465]	400 to 800	
O=C1Nc2ccccc2C(c2ccccc2)=NC1Nc1nnc(-c2cccnc2N2CCC(O)CC2)o1 (stereo not shown) [Example 255]	> 800	
O=C1Nc2ccccc2C(c2ccccc2)=NC1Nc1nnc(-c2ccc(OC3CCOCC3)cc2)o1 (stereo not shown) [Example 220]	> 800	
Cc1cc(-c2nnc(N[C@H]3N=C(c4ccccc4)c4ccccc4NC3=O)o2)n(C2CCOCC2)n1 [Example 432]	> 800	
O=C1Nc2ccccc2C(c2ccccc2)=N[C@@H]1Nc1nnc(-c2cnc(C(F)(F)F)nc2N2CCOCC2)o1 [Example 162]	< 400	
Cc1nc(-c2nnc(N[C@H]3N=C(c4ccccc4)c4ccccc4NC3=O)o2)c(N2CCOCC2)o1 [Example 337]	< 400	
O=C1Nc2ccccc2C(c2ccccc2)=N[C@@H]1Nc1nnc(-c2ccc(F)cc2N2CCOCC2)o1 [Example 159]	< 400	
O=C1Nc2ccccc2C(c2ccccc2)=N[C@@H]1Nc1nnc(-c2cn(-c3ccc(C(F)(F)F)nc3)nc2N2CCOCC2)o1 [Example 444]		< 400
COc1ccc(-c2nnc(NC3N=C(c4ccccc4)c4ccccc4NC3=O)o2)nc1Cl (stereo not shown) [Example 109]	> 800	
O=C1Nc2ccccc2C(c2ccccc2)=N[C@@H]1Nc1nnc(-c2nc(C3CC3)ccc2N2CCOCC2)o1 [Example 318]	< 400	
COc1ccn2ncc(-c3nnc(N[C@H]4N=C(c5ccccc5)c5ccccc5NC4=O)o3)c2c1 [Example 410]	> 800	
CN1CCN(c2cc(C(F)(F)F)cnc2-c2nnc(N[C@H]3N=C(c4ccccc4)c4ccccc4NC3=O)o2)CC1 [Example 327]	400 to 800	
N#Cc1ccc2nccc(-c3nnc(N[C@H]4N=C(c5ccccc5)c5ccccc5NC4=O)o3)c2c1 [Example 435]	> 800	
N#Cc1ccc(N2CCOCC2)c(-c2nnc(N[C@H]3N=C(c4ccccc4)c4ccccc4NC3=O)o2)n1 [Example 324]	< 400	
N#Cc1cnc(-c2nnc(NC3N=C(c4ccccc4)c4ccccc4NC3=O)o2)c(N2CCOCC2)c1 (stereo not shown) [Example 140]	< 400	
Cc1noc(C)c1-c1cc(C#N)ccc1-c1nnc(N[C@H]2N=C(c3ccccc3)c3ccccc3NC2=O)o1 [Example 320]	> 800	
C[C@@H]1CN(c2ccc(-c3nnc(N[C@H]4N=C(c5ccccc5)c5ccccc5NC4=O)o3)c(Cl)c2)C[C@H](C)O1 [Example 243]	> 800	

SMILES	EC50 [1] [nM]	EC50 [2] [nM]
CCCc1nnc(NC2N=C(c3ccccc3)c3ccccc3NC2=O)o1 (stereo not shown) [Example 190]	> 800	
CC(C)(Cc1ccccc1)c1nnc(NC2N=C(c3ccccc3)c3ccccc3NC2=O)o1 (stereo not shown) [Example 208]	> 800	
COCCn1cc(-c2nnc(N[C@H]3N=C(c4ccccc4)c4ccccc4NC3=O)o2)c(N2CCOCC2)n1 [Example 402]	< 400	
O=C1Nc2ccccc2C(c2ccccc2)=NC1Nc1nnc(-c2ccccc2-c2ccncc2)o1 (stereo not shown) [Example 226]	> 800	
O=C1Nc2c(F)cccc2C(c2ccccc2)=NC1Nc1nnc(-c2ccc(N3CCOCC3)cc2)o1 (stereo not shown) [Example 356]	400 to 800	
O=C1Nc2ccccc2C(c2ccccc2)=N[C@@H]1Nc1nnc(-c2cnn(-c3ccccc3)c2)o1 [Example 350]	400 to 800	
O=C1Nc2ccccc2C(c2ccccc2)=N[C@@H]1Nc1nnc(-c2ncc(C(F)(F)F)cc2N[C@@H]2CCC[C@@H]2O)o1 [Example 423]	400 to 800	
O=C1Nc2ccccc2C(c2ccccc2)=N[C@@H]1Nc1nnc(-c2cn(CC(F)(F)F)nc2N2CCOCC2)o1 [Example 488]		< 400
C[C@@H]1COCCN1c1cc(C(F)(F)F)cnc1-c1nnc(N[C@H]2N=C(c3ccccc3)c3ccccc3NC2=O)o1 [Example 294]	< 400	
O=C1Nc2ccccc2C(c2ccccc2)=NC1Nc1nnc(CC(F)(F)F)o1 (stereo not shown) [Example 203]	> 800	
COCCn1ccnc1-c1nnc(N[C@H]2N=C(c3ccccc3)c3ccccc3NC2=O)o1 [Example 306]	> 800	
O=C1Nc2ccccc2C(c2ccccc2)=NC1Nc1nnc(-c2cccnc2N2C[C@H]3COC[C@H]3C2)o1 (stereo partly shown) [Example 267]	> 800	
O=C1Nc2ccccc2C(c2ccccc2)=NC1Nc1nnc(-c2ccc(C(F)(F)F)nc2N2CCOCC2)o1 (stereo not shown) [Example 130]	400 to 800	
CN[C@H](c1ccccc1)c1nnc(NC2N=C(c3ccccc3)c3ccccc3NC2=O)o1 (stereo partly shown) [Example 238]	> 800	
O=C1Nc2ccccc2C(c2ccccc2)=N[C@@H]1Nc1nnc(-c2nc(C(F)(F)F)sc2C2=CCOCC2)o1 [Example 453]	< 400	
COCc1ccn2ncc(-c3nnc(N[C@H]4N=C(c5ccccc5)c5ccccc5NC4=O)o3)c2c1 [Example 449]	> 800	
COCC1(Nc2cc(C(F)(F)F)cnc2-c2nnc(N[C@H]3N=C(c4ccccc4)c4ccccc4NC3=O)o2)CC1 [Example 415]	> 800	
O=C1Nc2ccccc2C(c2ccccc2)=NC1Nc1nnc(-c2ccc(-n3cncn3)nc2)o1 (stereo not shown) [Example 225]	> 800	
CS(=O)(=O)c1ccc(-c2nnc(NC3N=C(c4ccccc4)c4ccccc4NC3=O)o2)c(N2CCOCC2)c1 (stereo not shown) [Example 121]	> 800	
CO[C@H]1CCN(c2ncccc2-c2nnc(NC3N=C(c4ccccc4)c4ccccc4NC3=O)o2)C1 (stereo partly shown) [Example 247]	> 800	
O=C1Nc2ccccc2C(c2ccccc2)=N[C@@H]1Nc1nnc(-c2sc(Br)cc2N2CCOCC2)o1 [Example 182]	< 400	
CC(C)(O)c1nnc(NC2N=C(c3ccccc3)c3ccccc3NC2=O)o1 (stereo not shown) [Example 213]	> 800	
O=C1Nc2ccccc2C(c2ccccc2)=NC1Nc1nnc(C2CC3(CCNCC3)C2)o1 (stereo not shown) [Example 222]	> 800	
O=C1Nc2ccccc2C(c2ccccc2)=N[C@@H]1Nc1nnc(-c2nc(C(F)(F)F)sc2N2CCO[C@@H]3C[C@@H]32)o1 (single isomer, unassigned) [Example 486]		> 800
O=C1Nc2ccccc2C(c2ccccc2)=NC1Nc1nnc(CCc2ccccc2)o1 (stereo not shown) [Example 199]	> 800	
C#Cc1cnc(-c2nnc(N[C@H]3N=C(c4ccccc4)c4ccccc4NC3=O)o2)c(N2CCOCC2)c1 [Example 311]	< 400	
